Results from patent US20250170265A1 (priority 2023, published 2025).
pEC50, pIC50: −log10 of the molar value. Values joined by “and” are separate entries in the source; they are usually repeats but may differ in a detail not shown here. Equal values may be shown once. Read-outs that look alike come from different tables or passages of the source.

Key:
[1] = test system: supercoiled pBR322 plasmid DNA; format: biochemical
[2] = test system: supercoiled pBR322 plasmid DNA; conditions: read-out: EC50 value
[3] = test system: linearized (EcoRV-HF-digested) pBR322 double stranded DNA
[4] = test system: supercoiled pBR322 plasmid DNA
[5] = test system: supercoiled pBR322 plasmid DNA; conditions: for pEC50: 525 nm
pBR322 = format: biochemical
[6] = Stability of diazonium compounds (NMR in D2O with acetonitrile internal standard); format: physicochemical

Experimental for HeLa cells: General cell culture protocol: HeLa cells were grown in DMEM growth media (GIBCO 11995065) with 10% FBS (GIBCO A5670401) in 75 cm^2 surface treated culture dishes (Fisherbrand FB012937) and were incubated in a cell culture chamber (37° C. with 5% CO2). Cells were kept at a maximum confluency of 80% and passaged up to 20 times. For each passage, the cells were washed with 1×PBS (GIBCO 20012027), detached from the plate by incubation with 0.25% Trypsin-EDTA (GIBCO 25200072) for 3-4 minutes in the cell culture chamber, and then diluted with growth media. The cells were spun down at 300×g at 4° C. for 5 minutes, resuspended with fresh growth media, and replated in a new flask.
Cell viability assay and IC50 procedure: The media in the cell culture dish was aspirated, and the cells were washed with 1×PBS. The cells were detached from the plate by 4-minute incubation with 0.25% Trypsin-EDTA in the cell culture chamber. The cells were then diluted with DMEM and were spun down at 300×g at 4° C. for 5 minutes. The media was aspirated, and the cell pellet was resuspended in fresh DMEM. The cells were counted and seeded in 6-well culture plates at 50,000 cells/well and incubated overnight. Alongside the 6-well plates, 35 mm glass bottom confocal plates (Fisher Scientific NC0409658) were also seeded with 50,000 cells/plate. 24 hours after the initial seeding, the media in the plates were aspirated and the cells were washed with 1×PBS. […] The wash buffer was aspirated from the plates and 2 mL of the corresponding diazonium dilutions was added to the respective wells in the 6-well plates, all in triplicate, in addition to the confocal plates. All plates were incubated in ambient light for 45 minutes in the cell culture hood and then for 1 hour in the cell culture chamber (37° C. with 5% CO2). Control wells with 2 mL 1×PBS pH 6.6 alone with no diazonium as well as additional control wells with 2 mL DMEM alone with no diazonium, all in triplicate, were also incubated alongside the wells with the diazonium solutions. The plates were then removed from the incubators and the solutions from all the dishes were aspirated and replaced with 2 mL of fresh DMEM. The plates were incubated in the cell culture chamber for 3 days. After the 3-day incubation, the respective cell viability of each well was measured using the PrestoBlue™ Cell Viability Procedure. To each well was added 200 μL of 10× PrestoBlue™ Cell Viability Reagent (ThermoFisher Scientific A13261) and the plates were then incubated in the cell culture chamber for 3 hours. The plates were then analyzed using a plate reader (SpectraMax iD5) by measuring the fluorescence at an excitation of 560 nm and emission of 590 nm. […]

Q: Which results are given for “ethidium bisdiazonium tetrafluoroborate [Compound 26]”?
A: DNA cleavage potency (in words) [1]: only modest potency; pEC50 ([1]; read-out: EC50 value): 6.87

Q: What does the source list for “tetrakis(benzene-4-diazonium)ethylene tetrafluoroborate [Compound 27]”?
A: DNA cleavage potency (in words) [1]: excellent potency; pEC50 ([1]; read-out: EC50 value): 7.48

Q: With “(R)-[1,1′-binaphthalene]-2,2′-bisdiazonium tetrafluoroborate [Compound 23]” as the compound, how does the pEC50 ([1]; read-out: EC50 value) read?
A: 7.38

Q: With “N^1,N^3,N^5-tris(benzene-4-diazonium)benzene-1,3,5-tricarboxamide tetrafluoroborate [Compound 29]” as the compound, how does the “DNA cleavage potency (in words)” value [1] read?
A: no notable improvement

Q: What about the pEC50 ([1]; read-out: EC50 value) of the same compound?
A: 7.00

Q: With `COc1ccc([N+]#N)cc1.F[B-](F)(F)F` [Compound 5, 4-methoxy-benzene-1-diazonium tetrafluoroborate] as the compound, how does the pEC50 ([1]; read-out: EC50 value) read?
A: 4.16

Q: With `N#[N+]c1ccc([N+](=O)[O-])c2ccccc12` [Compound 7, 4-nitro-naphthalene-1-diazonium tetrafluoroborate] as the compound, how does the pEC50 ([1]; read-out: EC50 value) read?
A: 6.27

Q: With “benzophenone-3,3′-bisdiazonium tetrafluoroborate [Compound 18]” as the compound, how does the pEC50 ([1]; read-out: EC50 value) read?
A: 7.50

Q: What does the source list for “tetrakis(benzene-4-diazonium)methane tetrafluoroborate [Compound 28]”?
A: pEC50 [2]: 8.44 and 7.86 and 7.83; concentrations giving noticeable cleavage into low molecular weight fragments ([3]; pre-linearized pBR322 (Form III, 40 μM/bp), 525 nm light in water for 1 hour): ≥ 100 nM; pEC50 ([3]; read-out: EC50 value, linearized pBR322, green light 525 nm, supercoiled pBR322 as internal standard): 6.90; plate confluency after 3 days (HeLa cells; 1.25 μM): over 90%; plate confluency after 3 days (HeLa cells; 10 μM): less than 10%; IC50 (cell viability) (HeLa cells; ambient light 45 min then 1 h at 37° C., 3-day incubation): 5.23 µg/mL; pIC50 (HeLa cells; read-out: IC50 (cell viability), ambient light 45 min then 1 h at 37° C., 3-day incubation): 5.17; pEC50 ([4]; read-out: DNA cleavage EC50 value, in the dark without cysteine): 6.01 and ~6.00 and 6.00; pEC50 ([4]; read-out: EC50 value, presence of cysteine in the dark): 7.51; DNA cleavage potency (in words) [1]: excellent potency; EC50 [1]: 0.00214 µg/mL; pEC50 ([1]; read-out: EC50 value): 8.56; decrease in activity, degassed vs standard deionized water [5]: 2 log scale; pEC50 ([5]; degassed deionized water): 6.76; pEC50 ([5]; standard deionized water, run alongside as control): 8.79

Q: Which results are given for `F[B-](F)(F)F.N#[N+]c1ccccc1` [Compound 1, benzenediazonium tetrafluoroborate]?
A: DNA cleavage potency (in words) [1]: limited activity; pEC50 ([1]; read-out: EC50): 4.73

Q: With “(S)-[1,1′-binaphthalene]-2,2′-bisdiazonium tetrafluoroborate [Compound 24]” as the compound, how does the pEC50 ([1]; read-out: EC50 value) read?
A: 6.85

Q: With “benzophenone-4,4′-bisdiazonium tetrafluoroborate [Compound 17]” as the compound, how does the pEC50 ([1]; read-out: EC50 value) read?
A: 7.62

Q: For `F[B-](F)(F)F.F[B-](F)(F)F.N#[N+]c1cccc2c([N+]#N)cccc12` [Compound 10, naphthalene-1,5-bisdiazonium tetrafluoroborate], which “cleavage of pBR322 (gel pattern)” value (pBR322; 500 nM, 525 nm irradiation 1.5 hours) is on record?
A: two new bands

Q: And the diazonium/IS ratio ([6]; 1 hour)?
A: 0.59

Q: What about the diazonium/IS ratio ([6]; 2 hours) of the same compound?
A: 0.56

Q: What about the diazonium/IS ratio ([6]; 6 hours) of the same compound?
A: 0.49

Q: And the diazonium/IS ratio ([6]; 24 hours)?
A: 0.41

Q: And the diazonium/IS ratio ([6]; T0 (immediately after sample preparation))?
A: 0.62

Q: And the pEC50 ([1]; read-out: EC50 value)?
A: 7.50

Q: With `Nc1cccc2c(N)cccc12` [1,5-diaminonaphthalene, reference compound] as the compound, how does the “cleavage of pBR322 (gel pattern)” value (pBR322) read?
A: no cleavage was observed
